Where two headings read alike, the source gives them in different places.
Columns and labels:
[1] = Metabolic stability test in pooled human liver microsomes; type: in vitro ADME; conditions: human liver microsomes 0.5 mg protein/mL, 1 mmol/L NADPH, 37° C., 30 minutes
Procedure: Using a commercially available pooled human liver microsomes, a compound of the present invention was reacted for a constant time, a remaining rate was calculated by comparing a reacted sample and an unreacted sample, thereby, a degree of metabolism in liver was assessed.
A reaction was performed (oxidative reaction) at 37° C. for 0 minute or 30 minutes in the presence of 1 mmol/L NADPH in 0.2 mL of a buffer (50 mmol/L Tris-HCl pH 7.4, 150 mmol/L potassium chloride, 10 mmol/L magnesium chloride) containing 0.5 mg protein/mL of human liver microsomes. After the reaction, 50 μL of the reaction solution was added to 100 μL of a methanol/acetonitrile=1/1 (v/v), mixed and centrifuged at 3000 rpm for 15 minutes. The compound of the present invention in the supernatant was quantified by LC/MS/MS or solid phase extraction (SPE)/MS, and a remaining amount of the compound of the present invention after the reaction was calculated, letting a compound amount at 0 minute reaction time to be 100%.

[2] = tested on: Mycobacterium avium ATCC700898; test: Determination of IC85 against M. avium (resazurin fluorescence); type: cell-based; conditions: 37° C., 3 days incubation then resazurin, fluorescence one day later
[3] = Mycobacterium avium, ATCC700898, M. avium ATCC700898, CAMHB medium, read-out: IC85

| Compound | MS_h_% (remaining amount of compound after reaction, 0 minute = 100%) [1] [%] | IC85 [2, 3] [nM] | IC85 ([2]; M. avium ATCC700898, CAMHB medium) [nM] |
| --- | --- | --- | --- |
| Cc1ccn2c(C(=O)NCc3ccc(C4CCN(c5ccc(OC(F)(F)F)cc5)CC4)c(F)c3)c(C)nc2c1 [Compound I-1-1] | 75 | 17 | – |
| Cc1ccn2c(C(=O)NCc3ccc(N4CCN(c5ccc(OC(F)(F)F)cc5)[C@@H](C)C4)c(F)c3)c(C)nc2c1 [Compound I-1-2] | 86 | 21 | – |
| CCc1nc2ccc(Cl)cn2c1C(=O)NCc1ccc(N2CCN(c3ccc(OC(F)(F)F)cc3)[C@@H](C)C2)c(F)c1 [Compound I-1-3] | 66 | 3 | – |
| Cc1ccn2c(C(=O)NCc3ccc(C4CCN(c5ccc(OC(C)C)cc5)CC4)c(F)c3)c(C)nc2c1 [Compound I-1-4] | 88 | 100 | – |
| Cc1ccn2c(C(=O)NCc3ccc(C4CCN(c5ccc(OCCF)cc5)CC4)c(F)c3)c(C)nc2c1 [Compound I-1-5] | 70 | 48 | – |
| Cc1ccn2c(C(=O)NCc3ccc(C4CCN(c5ccc(OC(F)(F)F)cn5)CC4)c(C)c3)c(C)nc2c1 [Compound I-1-7] | 87 | 170 | – |
| Cc1ccn2c(C(=O)NCc3ccc(C4CCN(c5ccc(OC(F)(F)F)cc5)CC4)cc3F)c(C)nc2c1 [Compound I-1-8] | 86 | 580 | – |
| Cc1ccn2c(C(=O)NCc3ccc(C4CCN(c5ccc(OC(C)C)cc5)CC4)cc3F)c(C)nc2c1 [Compound I-1-9] | 82 | 940 | – |
| CCc1nc2ccc(Cl)cn2c1C(=O)NCc1ccc(C2CCN(c3ccc(OC(F)(F)F)cc3)CC2)cc1F [Compound I-1-10] | 60 | 3.1 | – |
| Cc1ccn2c(C(=O)NCc3ccc(C4CCN(c5ccc(OC(F)(F)F)cn5)CC4)cc3F)c(C)nc2c1 [Compound I-1-11] | 72 | 89 | – |
| Cc1ccn2c(C(=O)NCc3ccc(N4CCN(c5ccc(OC(F)(F)F)cc5)[C@H](C)C4)c(F)c3)c(C)nc2c1 [Compound I-1-12] | 64 | 70 | – |
| Cc1cc2nc(C)c(C(=O)NCc3ccc(C4CCN(c5ccc(OC(F)(F)F)cc5)CC4)c(F)c3)n2cc1Cl [Compound I-1-13] | 82 | 57 | – |
| Cc1nc2cc(C(F)(F)F)ccn2c1C(=O)NCc1ccc(C2CCN(c3ccc(OC(F)(F)F)cc3)CC2)c(F)c1 [Compound I-1-14] | 79 | 760 | – |
| Cc1ccn2c(C(=O)NCc3ccc(C4CCN(c5ccc(OC(F)(F)F)cc5)CC4)c(F)c3)c(C(F)(F)F)nc2c1 [Compound I-1-15] | 71 | 57 | – |
| Cc1ccc2nc(C)c(C(=O)NCc3ccc(C4CCN(c5ccc(OC(F)(F)F)cc5)CC4)c(F)c3)n2c1 [Compound I-1-16] | 67 | 1.6 | – |
| O=C(NCc1ccc(C2CCN(c3ccc(OC(F)(F)F)cc3)CC2)c(F)c1)c1c(C(F)(F)F)nc2ccc(Cl)cn12 [Compound I-1-17] | 63 | – | 13 |
| Cc1nc2ccc(F)cn2c1C(=O)NCc1ccc(C2CCN(c3ccc(OC(F)(F)F)cc3)CC2)c(F)c1 [Compound I-1-18] | 85 | 11 | – |
| Cc1ccn2c(C(=O)NCc3ccc(C4CCN(c5cccc(OC(F)(F)F)c5)CC4)c(F)c3)c(C)nc2c1 [Compound I-1-19] | 87 | 130 | – |
| CCc1nc2ccc(Cl)cn2c1C(=O)NCc1ccc(C2CCN(c3ccc(OC(F)(F)F)cc3)CC2)c(F)c1 [Compound I-1-20] | 83 | 33 | – |

From patent US20220340566A1, “BENZYL AMINE-CONTAINING 5,6-HETEROAROMATIC COMPOUNDS USEFUL AGAINST MYCOBACTERIAL INFECTION” (priority 2019, published 2022)
